In brackets after ≈: the same amount, converted by molar mass. One block for each molecule: values may come before it.
How the values were obtained:
[1] = test system: Trichophyton rubrum (TRICH-1); experiment: Protocol 3: microtiter broth dilution MIC/MFC for dermatophytes, EMEM; type: cell-based, Trichophyton rubrum ATCC 18756
From the text: (§1) The fused pyrazolotetrathiepins of the invention are useful as antimycotic agents. The data is a result of different state of the art protocols, which employ either agar dilution or microtiter broth dilution techniques.
(§2) The test organisms used are two yeasts, Candida albicans ATCC 11651 (CAND-1), C. albicans ATCC e10231 (CAND-2) and two dermatophyte strains. Microsporum gypseum ATCC e9083 (MICRO-1) and Trichophyton rubrum ATCC 18756 (TRICH-1). These organisms are standardized to a concentration of 10^7 organisms/mL, aliquoted and frozen at -70°.
(§3) The compounds are dissolved in dimethyl sulfoxide (DMSO) and tested at specific concentrations required for the particular assay.
(§4) Appropriate standards are included with each assay. Their minimal inhibitory concentrations (MIC) values are shown in Table 4 according to the particular protocol used. Stock solutions of standard agents are stored at -70° and diluted the day of the assay.
(§5) Protocol 3 is a microtiter broth dilution assay that has been adapted for dermatophytes using EMEM and is described by Granade and Artis, J. Clin. Micro., 6, 1043-1047 (1982). Both strains of dermatophytes, MICRO-1 and TRICH-1 are diluted in broth to achieve an inoculum of 1×10^4 spores/mL. The compound is serially diluted from 100 μg/mL to 0.4 μg/mL in 10-two fold dilutions. The test is incubated at 30° for 72 hrs and the MIC values are determined. The minimum fungicidal concentration (MFC) assay is performed using the 72 hr microtiter plates. (Szoka, F., Mycology Observer, November-December, 1983). These plates are shaken vigorously and lμl/broth well is transferred with a micropipetter onto the appropirate well on a 24 well agar (EMEM) plate. These plates are then incubated at 30° for 72 hrs and read for MFC's.

[2] = test system: Candida albicans (CAND-2); experiment: Protocol 5: microtiter broth dilution MIC/MFC, EMEM broth pH 7.4; type: cell-based, C. albicans ATCC e10231
From the text: as §1, §2, §3, §4
(§6) Protocols 4 and 5 both utilize a standard microtiter broth dilution method described by Barry (Antimicrobic Susceptibilty Test: Principles and Practices, Lea and Febiger, 1976) but each uses a different medium. Protocol 4 uses Yeast Nitrogen Base broth pH 7.0 [Shadomy, S. Applied Microbiology, 17, 871-877 (1969)] while protocol 5 uses EMEM broth pH 7.4. The test organisms, CAND-1 and CAND-2 are diluted in the appropriate broth to achieve an inoculum of 1×10^4 CFUs/mL.
(§7) The compounds are tested from 100 μg/mL-0.4 μg/mL in 10-two fold serial dilutions and the assay is incubated at 37°, 5% CO2 for 24 hrs. MFC's are then determined as previously described but the plates are incubated under the conditions appropriate for Candida spp.

[3] = test system: Candida albicans (CAND-1); experiment: as above; type: cell-based, Candida albicans ATCC 11651
From the text: as §1, §2, §3, §4, §6, §7

[4] = test system: Microsporum gypseum (MICRO-1); experiment: Protocol 3: microtiter broth dilution MIC/MFC for dermatophytes, EMEM; type: cell-based, Microsporum gypseum ATCC e9083; settings: Nannizzia gypsea
From the text: as §1, §2, §3, §4, §5

[5] = test system: Candida albicans (CAND-1); experiment: Protocol 4: microtiter broth dilution MIC, Yeast Nitrogen Base broth pH 7.0; type: cell-based, Candida albicans ATCC 11651; settings: for MIC: Candida albicans
From the text: as §1, §2, §3, §4, §6, §7

[6] = test system: Candida albicans (CAND-2); experiment: as above; type: cell-based, C. albicans ATCC e10231; settings: for MIC: Candida albicans
From the text: as §1, §2, §3, §4, §6, §7

[7] = test system: Trichophyton rubrum (TRICH-1); experiment: Protocol 2: agar dilution MIC, Eagle's Minimum Essential Medium Agar (EMEM); type: cell-based, Trichophyton rubrum ATCC 18756
From the text: as §1, §2, §3, §4
(§8) Protocols 1 & 2 use a modification of the agar dilution method (Barry, A. L., The Antimicrobic Susceptibility Test: Principles and Practices, Lea and Febiger, 1976) with either Sabouraud dextrose agar (protocol 1) or Eagle's Minimum Essential Medium Agar (EMEM) (protocol 2).
(§9) The compound is tested at four specific concentrations within the range of 100 μg/mL-0.04 μg/mL and is incorporated directly into 20 mL molten agar (50°). The plates are then inoculated with the spore suspensions of MICRO-1 and TRICH-1 at 5×10^6 spores/mL using a multi point inoculator. The plates are incubated at ambient temperature for seven days and the MIC values determined.

[8] = test system: Microsporum gypseum (MICRO-1); experiment: as above; type: cell-based, Microsporum gypseum ATCC e9083; settings: Nannizzia gypsea
From the text: as §1, §2, §3, §4, §8, §9

[9] = test system: Candida albicans (CAND-1); experiment: In vitro dilution MIC, protocol not given; type: cell-based, Candida albicans ATCC 11651; settings: up to 100 μg/mL
From the text: as §1, §2, §3
as §6, with “The test organisms, CAND-1 and CAND-2 are diluted in the appropriate broth to achieve an inoculum of 1×10^4 CFUs/mL.” left out
as §7

[10] = test system: Candida albicans (CAND-2); experiment: In vitro dilution MIC, protocol not given; type: cell-based, C. albicans ATCC e10231; settings: up to 100 μg/mL
From the text: as §1, §2, §3
as §6, with “The test organisms, CAND-1 and CAND-2 are diluted in the appropriate broth to achieve an inoculum of 1×10^4 CFUs/mL.” left out
as §7

fungi = experiment: in vitro antifungal (antimycotic) activity, general statement; type: cell-based; settings: by-product; test not specified
From the text: as §1

[11] = test system: Trichophyton rubrum (TRICH-1); experiment: Protocol 1: agar dilution MIC, Sabouraud dextrose agar; type: cell-based, Trichophyton rubrum ATCC 18756
From the text: as §1, §2, §3
(§10) Appropriate standards are included with each assay. Their minimal inhibitory concentrations (MIC) values are shown in Table 4 according to the particular protocol used. Stock solutions of standard agents are stored at -70° and diluted the day of the assay. […]
(§11) The compound is tested at four specific concentrations within the range of 100 μg/mL-0.04 μg/mL and is incorporated directly into 20 mL molten agar (50°). […] The plates are incubated at ambient temperature for seven days and the MIC values determined.

[12] = test system: Microsporum gypseum (MICRO-1); experiment: as above; type: cell-based, Microsporum gypseum ATCC e9083; settings: Nannizzia gypsea
From the text: as §1, §2, §3, §10, §11

[13] = Candida albicans, Protocol 5, 37°, 5% CO2, 24 hrs, read-out: MIC CAND-2
[14] = Candida albicans, Protocol 5, 37°, 5% CO2, 24 hrs, read-out: MIC CAND-1
[15] = Candida albicans, Protocol 5, mean of five determinations ± standard deviation, read-out: MIC CAND-2 of standards
[16] = Protocol 4, mean of five determinations ± standard deviation, read-out: MIC CAND-1 of standards
[17] = Candida albicans, Protocol 5, mean of five determinations ± standard deviation, read-out: MIC CAND-1 of standards
[18] = Protocol 4, mean of five determinations ± standard deviation, read-out: MIC CAND-2 of standards
[19] = 168 h, Protocol 2, ambient temperature, seven days, read-out: MIC TRICH-1
[20] = 168 h, Protocol 2, ambient temperature, seven days, read-out: MIC MICRO-1
[21] = Protocol 5, mean of five determinations ± standard deviation
[22] = Protocol 4, mean of five determinations ± standard deviation

SMILES: Nc1nc(=O)[nH]cc1F [5-Fluorocytosine]
MIC [2, 15]: 1.3 ± 0.4 µg/mL (≈ 10.1 µM) | MIC [5, 16]: 0.7 ± 0.2 µg/mL (≈ 5.42 µM) | MIC [3, 17]: 1.1 ± 0.4 µg/mL (≈ 8.52 µM) | MIC [6, 18]: 1.1 ± 0.4 µg/mL (≈ 8.52 µM)

SMILES: CC1(C)SSc2cn(-c3ccccc3)nc2SS1 [3,3-dimethyl-7-phenyl-1,2,4,5-pyrazolotetrathiepin]
activity (in words) (fungi): inactive

SMILES: CC1(C)SSSc2cn(-c3ccccc3)nc2S1 [Example 3, 4,4-Dimethyl-7-phenyl-1,2,3,5-pyrazolotetrathiepin]
MIC [7, 19]: 1 µg/mL (≈ 3.2 µM) | MIC [8, 20]: 1 µg/mL (≈ 3.2 µM) | MIC CAND-1 (in words) [9]: Inactive at 100 μg/mL | MIC CAND-2 (in words) [10]: Inactive at 100 μg/mL

SMILES: Clc1ccc(COC(Cn2ccnc2)c2ccc(Cl)cc2Cl)c(Cl)c1 (stereo not shown) [Miconazole]
MIC ([2]; Candida albicans, read-out: MIC CAND-2 of standards): 0.5 ± 0.4 µg/mL (≈ 1.2 µM) | MIC ([5]; read-out: MIC CAND-1 of standards): 0.36 ± 0.12 µg/mL (≈ 0.865 µM) | MIC ([3]; Candida albicans, read-out: MIC CAND-1 of standards): 0.5 ± 0.4 µg/mL (≈ 1.2 µM) | MIC ([6]; read-out: MIC CAND-2 of standards): 0.5 ± 0.2 µg/mL (≈ 1.2 µM)

SMILES: Cn1cc2c(n1)SSSC(C)(C)S2 [Example 5, 2,2-Dimethyl-7-methyl-1,3,4,5-pyrazolotetrathiepin]
MIC [2, 13]: 1.6 µg/mL (≈ 6.39 µM) | MIC ([11]; 168 h, Protocol 1, ambient temperature, seven days, read-out: MIC TRICH-1): 4 µg/mL (≈ 16 µM) | MIC ([5]; Protocol 4, 37°, 5% CO2, 24 hrs, read-out: MIC CAND-1): 12.5 µg/mL (≈ 49.9 µM) | MIC [3, 14]: 3.2 µg/mL (≈ 12.8 µM) | MIC ([12]; 168 h, Protocol 1, ambient temperature, seven days, read-out: MIC MICRO-1): 4 µg/mL (≈ 16 µM) | MIC ([6]; Protocol 4, 37°, 5% CO2, 24 hrs, read-out: MIC CAND-2): 6.3 µg/mL (≈ 25.2 µM)

SMILES: C[C@@H]1[C@H](O)[C@@H](C)/C=C/C=C/CC/C=C/C=C/C=C/C=C/C(O[C@H]2O[C@H](C)[C@@H](O)[C@H](N)[C@@H]2O)CC2O[C@](O)(CC(O)C(O)CCC(O)CC(O)CC(O)CC(=O)O[C@H]1C)CC(O)C2C(=O)O (stereo partly shown) [Nystatin]
MIC CAND-2 of standards [2, 21]: 4.5 ± 1.0 µg/mL | MIC CAND-1 of standards [5, 22]: 6.0 ± 2.0 µg/mL | MIC CAND-1 of standards [3, 21]: 5.0 ± 0 µg/mL | MIC CAND-2 of standards [6, 22]: 5.0 ± 1.5 µg/mL

Further lines, with some results ahead:

MIC ([1]; Protocol 3, 30°, 72 hrs, read-out: MIC TRICH-1): 12.5 µg/mL (≈ 49.9 µM) | MIC [2, 13]: 25 µg/mL (≈ 99.8 µM) | MIC [3, 14]: 25 µg/mL (≈ 99.8 µM) | MIC ([4]; Protocol 3, 30°, 72 hrs, read-out: MIC MICRO-1): 12.5 µg/mL (≈ 49.9 µM)
SMILES: Cn1cc2c(n1)SSC(C)(C)SS2 [Example 4, 3,3-Dimethyl-7-methyl-1,2,4,5-pyrazolotetrathiepin]
MFC ([1]; Protocol 3, in brackets, subculture on EMEM agar 30°, 72 hrs, read-out: MFC TRICH-1 (minimum fungicidal concentration)): 25 µg/mL (≈ 99.8 µM) | MFC ([2]; Candida albicans, Protocol 5, in brackets, read-out: MFC CAND-2 (minimum fungicidal concentration)): 50 µg/mL (≈ 200 µM) | MFC ([3]; Candida albicans, Protocol 5, in brackets, read-out: MFC CAND-1 (minimum fungicidal concentration)): 50 µg/mL (≈ 200 µM) | MFC ([4]; Protocol 3, in brackets, subculture on EMEM agar 30°, 72 hrs, read-out: MFC MICRO-1 (minimum fungicidal concentration)): 25 µg/mL (≈ 99.8 µM)

MIC [7, 19]: 0.2 µg/mL (≈ 0.64 µM) | MIC [8, 20]: 1 µg/mL (≈ 3.2 µM) | MIC CAND-1 (in words) [9]: Inactive at 100 μg/mL | MIC CAND-2 (in words) [10]: Inactive at 100 μg/mL
SMILES: CC1(C)SSSc2nn(-c3ccccc3)cc2S1 [Example 2, 2,2-Dimethyl-7-phenyl-1,3,4,5-pyrazolotetrathiepin]

MIC CAND-2 of standards [2, 21]: 0.7 ± 0.3 µg/mL | MIC CAND-1 of standards [5, 22]: 0.6 ± 0.2 µg/mL | MIC CAND-1 of standards [3, 21]: 0.5 ± 0.3 µg/mL | MIC CAND-2 of standards [6, 22]: 0.5 ± 0.3 µg/mL
SMILES: C[C@@H]1[C@H](O)[C@@H](C)/C=C/C=C/C=C/C=C/C=C/C=C/C=C/[C@H](O[C@@H]2O[C@H](C)[C@@H](O)[C@H](N)[C@@H]2O)C[C@@H]2O[C@](O)(C[C@@H](O)C[C@@H](O)[C@H](O)CC[C@@H](O)C[C@@H](O)CC(=O)O[C@H]1C)C[C@H](O)[C@H]2C(=O)O [Amphotericin B]

MIC [2, 15]: 0.2 ± 0.04 µg/mL (≈ 0.376 µM) | MIC [5, 16]: 0.15 ± 0.1 µg/mL (≈ 0.282 µM) | MIC [3, 17]: 0.3 ± 0.04 µg/mL (≈ 0.565 µM) | MIC [6, 18]: 0.22 ± 0.04 µg/mL (≈ 0.414 µM)
SMILES: CC(=O)N1CCN(c2ccc(OCC3COC(Cn4ccnc4)(c4ccc(Cl)cc4Cl)O3)cc2)CC1 (stereo not shown) [Ketoconazole]

MIC ([7]; Protocol 2, mean of five determinations ± standard deviation, read-out: MIC TRICH-1 of standards): 9.4 ± 4 µg/mL (≈ 26.6 µM) | MIC ([1]; Protocol 3, mean of five determinations ± standard deviation, read-out: MIC TRICH-1 of standards): 6.3 µg/mL (≈ 17.9 µM) | MIC ([11]; Protocol 1, mean of five determinations ± standard deviation, read-out: MIC TRICH-1 of standards): 1.8 ± 0.7 µg/mL (≈ 5.1 µM) | MIC ([8]; Protocol 2, mean of five determinations ± standard deviation, read-out: MIC MICRO-1 of standards): 4.5 ± 3 µg/mL (≈ 12.8 µM) | MIC ([12]; Protocol 1, mean of five determinations ± standard deviation, read-out: MIC MICRO-1 of standards): 2 ± 0.7 µg/mL (≈ 5.67 µM) | MIC ([4]; Protocol 3, mean of five determinations ± standard deviation, read-out: MIC MICRO-1 of standards): 5.4 ± 2 µg/mL (≈ 15.3 µM)
SMILES: COC1=CC(=O)C[C@@H](C)[C@]12Oc1c(Cl)c(OC)cc(OC)c1C2=O [Griseofulvin]
